Experimental data reported in PMC5122408, “High throughput chemical library screening identifies a novel p110-δ inhibitor that potentiates the anti-myeloma effect of bortezomib” (Oncotarget, 2016).

Columns and labels:
CLL cells = experiment: XTT viability, CLL cells (DT97 vs idelalisib); format: cell-based; settings: 1 uM, 72 h, XTT assay
p110-α = p110-α (Homo sapiens, UniProt P42336); parameters: method as in PMID 20959606; settings: Class I PI3Ks; cited from earlier work
p110-β = p110-β (Homo sapiens, UniProt P42338); parameters: method as in PMID 20959606; settings: Class I PI3Ks; cited from earlier work
p110-β, sequence (P42338 whole entry): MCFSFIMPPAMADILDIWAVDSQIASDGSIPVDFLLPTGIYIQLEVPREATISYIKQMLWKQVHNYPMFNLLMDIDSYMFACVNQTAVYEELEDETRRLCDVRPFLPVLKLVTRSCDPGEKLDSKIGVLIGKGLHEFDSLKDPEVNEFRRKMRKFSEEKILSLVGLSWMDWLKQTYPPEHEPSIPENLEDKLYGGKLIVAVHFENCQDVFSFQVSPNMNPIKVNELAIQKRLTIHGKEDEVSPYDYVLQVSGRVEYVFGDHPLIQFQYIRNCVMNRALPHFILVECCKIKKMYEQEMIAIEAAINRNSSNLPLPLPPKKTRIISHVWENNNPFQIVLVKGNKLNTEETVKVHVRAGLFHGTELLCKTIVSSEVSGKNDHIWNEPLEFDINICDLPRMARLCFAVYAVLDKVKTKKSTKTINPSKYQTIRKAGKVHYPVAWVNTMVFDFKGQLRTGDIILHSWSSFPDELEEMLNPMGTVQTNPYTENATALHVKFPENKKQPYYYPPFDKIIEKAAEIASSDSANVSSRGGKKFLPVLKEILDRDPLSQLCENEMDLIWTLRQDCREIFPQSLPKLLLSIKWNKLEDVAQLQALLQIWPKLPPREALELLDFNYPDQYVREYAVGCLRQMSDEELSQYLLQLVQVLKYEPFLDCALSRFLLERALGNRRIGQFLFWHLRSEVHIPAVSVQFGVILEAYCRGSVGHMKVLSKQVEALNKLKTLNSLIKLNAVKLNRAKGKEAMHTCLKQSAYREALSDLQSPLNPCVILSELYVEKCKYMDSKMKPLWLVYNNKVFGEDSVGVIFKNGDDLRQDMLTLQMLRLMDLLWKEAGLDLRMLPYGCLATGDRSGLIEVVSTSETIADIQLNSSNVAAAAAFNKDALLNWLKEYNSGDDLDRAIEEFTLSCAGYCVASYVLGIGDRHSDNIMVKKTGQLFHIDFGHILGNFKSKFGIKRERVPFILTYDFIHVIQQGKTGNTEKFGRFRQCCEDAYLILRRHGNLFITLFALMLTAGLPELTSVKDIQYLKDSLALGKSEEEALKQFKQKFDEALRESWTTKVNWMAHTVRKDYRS
p110-β, sequence (P27986 whole entry partner): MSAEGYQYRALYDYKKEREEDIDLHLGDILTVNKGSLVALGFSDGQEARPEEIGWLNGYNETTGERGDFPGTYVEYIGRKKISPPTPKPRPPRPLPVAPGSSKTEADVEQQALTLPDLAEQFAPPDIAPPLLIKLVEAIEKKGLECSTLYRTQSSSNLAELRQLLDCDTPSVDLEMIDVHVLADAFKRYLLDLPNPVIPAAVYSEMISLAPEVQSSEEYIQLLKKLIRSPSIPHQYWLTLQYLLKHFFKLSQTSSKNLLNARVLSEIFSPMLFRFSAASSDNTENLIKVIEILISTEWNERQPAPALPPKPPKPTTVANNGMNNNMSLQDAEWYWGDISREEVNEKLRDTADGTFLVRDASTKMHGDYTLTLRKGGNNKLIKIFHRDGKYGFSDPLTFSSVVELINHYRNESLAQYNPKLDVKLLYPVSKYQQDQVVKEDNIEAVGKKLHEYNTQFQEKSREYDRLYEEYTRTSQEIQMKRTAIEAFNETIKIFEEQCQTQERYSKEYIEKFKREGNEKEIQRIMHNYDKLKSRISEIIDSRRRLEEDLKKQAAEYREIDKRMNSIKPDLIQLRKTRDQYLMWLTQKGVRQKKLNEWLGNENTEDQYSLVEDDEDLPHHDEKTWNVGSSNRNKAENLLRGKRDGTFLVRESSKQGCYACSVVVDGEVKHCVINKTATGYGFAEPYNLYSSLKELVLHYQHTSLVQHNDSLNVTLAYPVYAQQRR

p110-γ = p110-γ (Homo sapiens, UniProt P48736); parameters: method as in PMID 20959606; key to the marks not given beside the values; settings: Class I PI3Ks; cited from earlier work
p110-δ = p110-δ (Homo sapiens, UniProt O00329); parameters: method as in PMID 20959606; key to the marks not given beside the values; settings: Class I PI3Ks; cited from earlier work
PKC2-α = PKC2-α (Homo sapiens, UniProt O00443); parameters: method as in PMID 20959606; settings: Class II PI3Ks; cited from earlier work
PKCγ = tested on: PKCγ; parameters: method as in PMID 20959606; settings: cited from earlier work
PDGFR = tested on: PDGFR; parameters: method as in PMID 20959606; settings: Other Clinically-relevant Kinases; cited from earlier work
ERBB2 = ERBB2 (Homo sapiens, UniProt P04626); parameters: method as in PMID 20959606; settings: Other Clinically-relevant Kinases; cited from earlier work
ERBB2, sequence (P04626 23-1255): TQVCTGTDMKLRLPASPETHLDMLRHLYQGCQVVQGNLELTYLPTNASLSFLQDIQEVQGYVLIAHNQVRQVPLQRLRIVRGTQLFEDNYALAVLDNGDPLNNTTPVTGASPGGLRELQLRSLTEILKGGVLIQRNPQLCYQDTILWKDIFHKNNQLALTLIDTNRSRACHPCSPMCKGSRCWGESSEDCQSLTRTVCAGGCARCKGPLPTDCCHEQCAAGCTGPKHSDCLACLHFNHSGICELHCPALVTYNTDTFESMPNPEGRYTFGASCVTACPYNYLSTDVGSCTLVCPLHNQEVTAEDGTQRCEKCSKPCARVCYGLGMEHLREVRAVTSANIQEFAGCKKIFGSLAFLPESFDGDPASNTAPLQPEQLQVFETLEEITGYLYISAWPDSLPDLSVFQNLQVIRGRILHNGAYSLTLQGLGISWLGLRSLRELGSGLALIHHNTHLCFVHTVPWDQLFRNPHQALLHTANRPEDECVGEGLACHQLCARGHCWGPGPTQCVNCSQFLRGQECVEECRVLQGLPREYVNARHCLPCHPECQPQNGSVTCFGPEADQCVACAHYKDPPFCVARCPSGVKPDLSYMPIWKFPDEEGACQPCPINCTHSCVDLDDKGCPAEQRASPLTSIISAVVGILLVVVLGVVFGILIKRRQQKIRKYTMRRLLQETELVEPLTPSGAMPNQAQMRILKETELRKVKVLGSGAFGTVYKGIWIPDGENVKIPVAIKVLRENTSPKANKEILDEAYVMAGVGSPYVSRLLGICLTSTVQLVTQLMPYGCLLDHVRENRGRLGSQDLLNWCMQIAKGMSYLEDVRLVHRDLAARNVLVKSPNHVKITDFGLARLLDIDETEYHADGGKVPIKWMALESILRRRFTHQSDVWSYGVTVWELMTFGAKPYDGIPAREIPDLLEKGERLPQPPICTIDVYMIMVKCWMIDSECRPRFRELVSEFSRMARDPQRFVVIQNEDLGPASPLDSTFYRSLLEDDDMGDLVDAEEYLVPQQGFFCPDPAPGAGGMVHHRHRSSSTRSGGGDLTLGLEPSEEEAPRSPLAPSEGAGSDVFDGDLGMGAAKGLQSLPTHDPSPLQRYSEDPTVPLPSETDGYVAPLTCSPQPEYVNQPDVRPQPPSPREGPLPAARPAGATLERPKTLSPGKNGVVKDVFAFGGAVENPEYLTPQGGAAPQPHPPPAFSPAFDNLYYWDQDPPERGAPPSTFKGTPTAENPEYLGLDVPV

ERBB4 = ERBB4 (Homo sapiens, UniProt Q15303); parameters: method as in PMID 20959606; settings: Other Clinically-relevant Kinases; cited from earlier work
MM.1S myeloma cells = experiment: Mouse xenograft model of myeloma; format: in vivo, mice; settings: subcutaneous myeloma xenograft; intravenous; bortezomib 0.5 mg/kg, DT97 10 mg/kg
Procedure: Five week old nude mice flanks are injected subcutaneously with MM.1S myeloma cells. Tumors formed within two weeks and mice were then treated intravenously with vehicle, bortezomib, DT97 or both bortezomib and DT97.
Subcutaneous tumors were generated after injection of myeloma cells. […] Vehicle or bortezomib was administered on days 1, 4, 8 and 11. Mice were euthanized when tumors reached 2 cm^3, became ulcerated or elicited neurologic or musculoskeletal complications that limited mobility and feeding. Survival and tumor growth were evaluated from the first day of treatment. Shown is the average of replicate measurements. […] Kaplan-Meier survival curves comparison of NOD. SCID mice after subcutaneous injection of parental myeloma cells treated with vehicle, DT97, bortezomib or both.
Mice received intravenous injection of either vehicle (PBS in 10% DMSO); bortezomib (0.5 mg/kg), DT97 (10 mg/kg) or both bortezomib and DT97. Tumor volume (TV) measurements were made using a vernier caliper and calculated using the formula: TV = 0.5 (a × b^2) where a is the long diameter and b the short diameter. Mice were euthanized when tumors reached 2 cm^3, became ulcerated or elicited neurologic or musculoskeletal complications that limited mobility and feeding.
In vivo statistical tests were performed using the 2-tailed Student t test.

p110-α, sequence (P42336 whole entry): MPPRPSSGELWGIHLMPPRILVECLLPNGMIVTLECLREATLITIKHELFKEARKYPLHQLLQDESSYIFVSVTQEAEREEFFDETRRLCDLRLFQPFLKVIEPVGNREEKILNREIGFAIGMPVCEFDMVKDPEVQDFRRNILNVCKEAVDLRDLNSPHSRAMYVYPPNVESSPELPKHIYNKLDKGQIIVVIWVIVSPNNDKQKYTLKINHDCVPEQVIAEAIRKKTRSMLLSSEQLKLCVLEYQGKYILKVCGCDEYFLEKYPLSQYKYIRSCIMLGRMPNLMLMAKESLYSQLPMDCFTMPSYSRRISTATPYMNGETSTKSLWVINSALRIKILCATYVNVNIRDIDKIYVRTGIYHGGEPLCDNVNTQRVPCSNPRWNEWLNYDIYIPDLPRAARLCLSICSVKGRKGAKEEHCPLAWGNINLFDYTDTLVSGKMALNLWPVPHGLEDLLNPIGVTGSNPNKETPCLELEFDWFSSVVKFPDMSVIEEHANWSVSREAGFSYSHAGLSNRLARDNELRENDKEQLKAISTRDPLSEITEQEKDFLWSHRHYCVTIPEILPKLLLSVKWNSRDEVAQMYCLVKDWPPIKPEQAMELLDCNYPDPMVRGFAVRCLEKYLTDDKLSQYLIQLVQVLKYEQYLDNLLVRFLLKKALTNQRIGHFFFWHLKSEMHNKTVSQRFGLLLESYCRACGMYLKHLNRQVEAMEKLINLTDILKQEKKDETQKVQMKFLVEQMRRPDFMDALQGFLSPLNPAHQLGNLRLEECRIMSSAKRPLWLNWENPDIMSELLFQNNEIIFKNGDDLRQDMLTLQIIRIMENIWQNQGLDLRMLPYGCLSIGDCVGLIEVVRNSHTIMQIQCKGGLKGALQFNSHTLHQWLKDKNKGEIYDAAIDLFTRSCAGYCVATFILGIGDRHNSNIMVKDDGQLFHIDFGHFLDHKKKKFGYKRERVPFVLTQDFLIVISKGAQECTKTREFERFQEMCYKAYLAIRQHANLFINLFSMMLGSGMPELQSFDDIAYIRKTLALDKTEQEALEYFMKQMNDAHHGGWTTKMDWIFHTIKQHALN
p110-α, sequence (P27986 whole entry partner): as the sequence (P27986 whole entry partner) above

Structure (SMILES) | viability (CLL cells) | Inhibitory profile (kinase inhibition) (p110-α) | Inhibitory profile (kinase inhibition) (p110-β) | Inhibitory profile (kinase inhibition) (p110-γ) | Inhibitory profile (kinase inhibition) (p110-δ) | Inhibitory profile (kinase inhibition) (PKC2-α) | Inhibitory profile (kinase inhibition) (PKCγ) | Inhibitory profile (kinase inhibition) (PDGFR) | Inhibitory profile (kinase inhibition) (ERBB2) | Inhibitory profile (kinase inhibition) (ERBB4) | overall survival (OS) (MM.1S myeloma cells) | tumor growth (MM.1S myeloma cells)
CC[C@H](Nc1ncnc2[nH]cnc12)c1nc2cccc(F)c2c(=O)n1-c1ccccc1 [Idelalisib, idelalisib] | more effectively reduced the viability | + | + | ++ | +++ | none | none | none | none | none | – | –
CC(C)C[C@H](NC(=O)[C@H](Cc1ccccc1)NC(=O)c1cnccn1)B(O)O [bortezomib] | – | – | – | – | – | – | – | – | – | – | 20 days | dramatically reduced tumor growth
